Test results as given in US20250296971A1, “GASTRIC INHIBITORY PEPTIDE RECEPTOR LIGANDS” (priority 2021, published 2025).
*1 amine or outer side, *2 acyl side, *3 side chain or, on linkers, in order; H or OH if unused. Where a SMILES comes first, the peptide text is derived from it. Bridges are numbered along the chain shown (N, C = ends). [ ]: non-standard residue; d: D form. Trp(5-Cl) = N[C@@H](Cc1c[nH]c2ccc(Cl)cc12)C(=O)O; Phe(3,5-Cl2) = N[C@@H](Cc1cc(Cl)cc(Cl)c1)C(=O)O; Pyridine(2,6-diCH2) = c1cc(C[*:1])nc(C[*:2])c1; X22 = O=C([C@H](Cc1cccc(Cl)c1Cl)N[*:1])[*:2]; Oic = O=C(O)[C@@H]1C[C@@H]2CCCC[C@@H]2N1; Phe(2-Cl) = N[C@@H](Cc1ccccc1Cl)C(=O)O; 1Nal = N[C@@H](Cc1cccc2ccccc12)C(=O)O; mXylylene = c1cc(C[*:1])cc(C[*:2])c1; X7 = c1cc(CSCCN[*:2])cc(C[*:1])c1; Hyp = O=C(O)[C@@H]1C[C@@H](O)CN1; Suc = O=C(CCC(=O)[*:2])[*:1]; hLeu = CC(C)CC[C@H](N)C(=O)O; Pip = O=C(O)[C@@H]1CCCCN1; Thp = NC1(C(=O)O)CCOCC1; Aib = CC(C)(N)C(=O)O

target: T1, GIPR (CHO-K1-hGIPR cells) (Homo sapiens, UniProt P48546); experiment: FACS binding assay; details: competition with 20 nM GIP-057, 4° C. for 1 hour, read-out: pIC50 Category (converted)
T1 construct: host or cells: CHO-K1
T1 sequence (P48546 22-466): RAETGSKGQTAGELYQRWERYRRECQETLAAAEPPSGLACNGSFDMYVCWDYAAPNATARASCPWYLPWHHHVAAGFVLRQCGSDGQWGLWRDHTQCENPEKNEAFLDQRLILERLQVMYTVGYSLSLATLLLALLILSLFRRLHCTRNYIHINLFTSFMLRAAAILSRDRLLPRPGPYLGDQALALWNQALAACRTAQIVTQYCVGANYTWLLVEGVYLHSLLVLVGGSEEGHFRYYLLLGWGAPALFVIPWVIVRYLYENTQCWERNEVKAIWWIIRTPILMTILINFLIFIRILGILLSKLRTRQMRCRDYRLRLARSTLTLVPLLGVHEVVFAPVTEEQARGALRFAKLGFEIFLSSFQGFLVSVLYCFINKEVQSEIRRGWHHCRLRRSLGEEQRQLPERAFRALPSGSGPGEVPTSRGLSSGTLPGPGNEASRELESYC
Outline: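 CHO-K1 cells expressing human GIPR, washed in PBS/1% FCS, then stained with 1 μg/mL APC-streptavidin for 30 min on ice.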

IC50, 10 to 79.4 nM:
CC[C@H](C)[C@@H]1NC(=O)[C@H](CC(C)C)NC(=O)C(C)(C)NC(=O)[C@@H](NC(=O)[C@H](CC(C)C)NC(=O)[C@H](CCC(=O)O)NC(=O)[C@@H]2CCCN2C(=O)[C@H](Cc2c[nH]c3ccccc23)NC(=O)[C@H](Cc2c[nH]c3ccccc23)NC(=O)[C@H](CC(=O)O)NC(C)=O)CSCc2cccc(c2)CSCCNC1=O [GIP-251, Ac-Asp-Trp-Tip-Pro-Glu-Leu-[Cys(3MeBn)-Aib-Leu-Ile-AET]] (Ac-DWWPELC[Aib]LI; linker 7-C via X7)
CC[C@H](C)[C@@H]1NC(=O)[C@H](CC(C)C)NC(=O)C(C)(C)NC(=O)[C@@H](NC(=O)[C@H](CC(C)C)NC(=O)[C@H](CCC(=O)O)NC(=O)[C@@H]2C[C@@H]3CCCC[C@@H]3N2C(=O)[C@H](Cc2cccc3ccccc23)NC(=O)[C@H](Cc2c[nH]c3ccccc23)NC(=O)[C@H](CC(=O)O)NC(C)=O)CSCc2cccc(c2)CSC[C@@H](C(N)=O)NC1=O [GIP-252, Ac-Asp-Trp-1Ni-Pip-Glu-Leu-[Cys(3MeBn)-Aib-Leu-Ile-Cys]-NH2] (Ac-DW[1Nal][Oic]ELC[Aib]LIC-NH2; linker 7-11 via mXylylene)
CC[C@H](C)[C@@H]1NC(=O)[C@H](CC(C)C)NC(=O)C(C)(C)NC(=O)[C@@H](NC(=O)[C@H](CC(C)C)NC(=O)[C@H](CCC(=O)O)NC(=O)[C@@H]2CCCCN2C(=O)[C@H](Cc2cccc3ccccc23)NC(=O)[C@H](Cc2c[nH]c3ccccc23)NC(=O)[C@H](CC(=O)O)NC(C)=O)CSCc2cccc(c2)CSC[C@@H](C(N)=O)NC1=O [GIP-253, Ac-Asp-Trp-1Ni-Pip-Glu-Leu-[Cys(3MeBn)-Aib-Leu-Ile-Cys]-NH2] (Ac-DW[1Nal][Pip]ELC[Aib]LIC-NH2; linker 7-11 via mXylylene)
CC[C@H](C)[C@@H]1NC(=O)[C@H](CC(C)C)NC(=O)[C@H](C)NC(=O)[C@@H](NC(=O)[C@H](CC(C)C)NC(=O)[C@H](CCC(=O)O)NC(=O)[C@@H]2CCCN2C(=O)[C@H](Cc2c[nH]c3ccccc23)NC(=O)[C@H](Cc2c[nH]c3ccccc23)NC(=O)[C@H](CC(=O)O)NC(=O)[C@H](Cc2ccc(O)cc2)NC(=O)[C@@H](N)CCSC)CSCc2cccc(c2)CSC[C@@H](C(N)=O)NC1=O [GIP-254] (H-MYDWWPELCALIC-NH2; linker 9-13 via mXylylene)
CC[C@H](C)[C@@H]1NC(=O)[C@H](CC(C)C)NC(=O)[C@H](C)NC(=O)[C@@H](NC(=O)[C@H](CC(C)C)NC(=O)[C@H](CCC(=O)O)NC(=O)[C@@H]2CCCN2C(=O)[C@H](Cc2c[nH]c3ccccc23)NC(=O)[C@H](Cc2c[nH]c3ccccc23)NC(=O)CCC(=O)O)CSCc2cccc(c2)CSC[C@@H](C(N)=O)NC1=O [GIP-255, HO-Succinyl-Trp-Trp-Pro-Glu-Leu-[Cys(3MeBn)-Ala-Leu-Ile-Cys]-NH2] (Suc-WWPELCALIC-NH2; linker 6-10 via mXylylene)
CC[C@H](C)[C@@H]1NC(=O)[C@H](CC(C)C)NC(=O)[C@H](C)NC(=O)[C@@H](NC(=O)[C@H](CC(C)C)NC(=O)[C@H](CCC(=O)O)NC(=O)[C@@H]2CCCN2C(=O)[C@H](Cc2c[nH]c3ccccc23)NC(=O)[C@H](Cc2c[nH]c3ccccc23)NC(=O)CCC(=O)O)CSCc2cccc(c2)CSCCNC1=O [GIP-256, HO-Succinyl-Trp-Trp-Pro-Glu-Leu-[Cys(3MeBn)-Ala-Leu-Ile-AET]] (Suc-WWPELCALI; linker 6-C via X7)
CC[C@H](C)[C@@H]1NC(=O)[C@H](CC(C)C)NC(=O)[C@H](C)NC(=O)[C@@H](NC(=O)[C@H](CC(C)C)NC(=O)[C@H](CCC(=O)O)NC(=O)[C@@H]2CCCN2C(=O)[C@H](Cc2c[nH]c3ccccc23)NC(=O)[C@H](Cc2c[nH]c3ccccc23)NC(=O)CCC(=O)O)CSCc2cccc(n2)CSC[C@@H](C(N)=O)NC1=O [GIP-257, HO-Succinyl-Trp-Trp-Pro-Glu-Leu-[Cys(2Lut)-Ala-Leu-Ile-Cys]-NH2] (Suc-WWPELCALIC-NH2; linker 6-10 via Pyridine(2,6-diCH2))
CC[C@H](C)[C@@H]1NC(=O)[C@H](CC(C)C)NC(=O)C(C)(C)NC(=O)[C@@H](NC(=O)[C@@H](CC(C)C)NC(=O)[C@H](CCC(=O)O)NC(=O)[C@@H]2CCCN2C(=O)[C@H](Cc2c[nH]c3ccccc23)NC(=O)[C@H](Cc2c[nH]c3ccccc23)NC(=O)CCC(=O)O)CSCc2cccc(c2)CSC[C@@H](C(N)=O)NC1=O [GIP-258, HO-Succinyl-Trp-Trp-Pro-Glu-leu-[Cys(3MeBn)-Aib-Leu-Ile-Cys]-NH2] (Suc-WWPE[dL]C[Aib]LIC-NH2; linker 6-10 via mXylylene)
CC[C@H](C)[C@@H]1NC(=O)[C@H](CC(C)C)NC(=O)C(C)(C)NC(=O)[C@@H](NC(=O)[C@H](CC(C)C)NC(=O)[C@H](CCC(=O)O)NC(=O)[C@@H]2CCCN2C(=O)[C@H](Cc2c[nH]c3ccccc23)NC(=O)[C@H](Cc2c[nH]c3ccccc23)NC(=O)CCC(=O)O)CSCc2cccc(c2)CSC[C@@H](C(N)=O)NC1=O [GIP-259, HO-Succinyl-Trp-Trp-Pro-Glu-Leu-[Cys(3MeBn)-Aib-Leu-Ile-Cys]-NH2] (Suc-WWPELC[Aib]LIC-NH2; linker 6-10 via mXylylene)
CC[C@H](C)[C@@H]1NC(=O)[C@H](CCC(C)C)NC(=O)C(C)(C)NC(=O)[C@@H](NC(=O)[C@H](CC(C)C)NC(=O)[C@H](CCC(=O)O)NC(=O)[C@@H]2CCCN2C(=O)[C@H](Cc2c[nH]c3ccccc23)NC(=O)[C@H](Cc2c[nH]c3ccccc23)NC(=O)CCC(=O)O)CSCc2cccc(c2)CSC[C@@H](C(N)=O)NC1=O [GIP-260, HO-Succinyl-Trp-Trp-Pro-Glu-Leu-[Cys(3MeBn)-Aib-Hle-Ile-Cys]-NH2] (Suc-WWPELC[Aib][hLeu]IC-NH2; linker 6-10 via mXylylene)
CC[C@H](C)[C@@H]1NC(=O)[C@H](CC(C)C)NC(=O)C2(CCOCC2)NC(=O)[C@@H](NC(=O)[C@H](CC(C)C)NC(=O)[C@H](CCC(=O)O)NC(=O)[C@@H]2CCCN2C(=O)[C@H](Cc2c[nH]c3ccccc23)NC(=O)[C@H](Cc2c[nH]c3ccccc23)NC(=O)CCC(=O)O)CSCc2cccc(c2)CSC[C@@H](C(N)=O)NC1=O [GIP-261, HO-Succinyl-Trp-Trp-Pro-Glu-Leu-[Cys(3MeBn)-Thp-Leu-Ile-Cys]-NH2] (Suc-WWPELC[Thp]LIC-NH2; linker 6-10 via mXylylene)
CC[C@H](C)[C@@H]1NC(=O)[C@H](CC(C)C)NC(=O)C2(CCOCC2)NC(=O)[C@@H](NC(=O)[C@@H](CC(C)C)NC(=O)[C@H](CCC(=O)O)NC(=O)[C@@H]2C[C@@H](O)CN2C(=O)[C@H](Cc2c[nH]c3ccc(Cl)cc23)NC(=O)[C@H](Cc2ccccc2Cl)NC(=O)[C@H](CC(=O)O)NC(C)=O)CSCc2cccc(n2)CSC[C@@H](C(N)=O)NC1=O [GIP-262, Ac-Asp-Ocf-5Clw-Hyp-Glu-leu-[Cys(2Lut)-Thp-Leu-Ile-Cys]-NH2] (Ac-D[Phe(2-Cl)][Trp(5-Cl)][Hyp]E[dL]C[Thp]LIC-NH2; linker 7-11 via Pyridine(2,6-diCH2))
CC[C@H](C)[C@@H]1NC(=O)[C@H](CC(C)C)NC(=O)C2(CCOCC2)NC(=O)[C@@H](NC(=O)[C@@H](CC(C)C)NC(=O)[C@H](CCC(=O)O)NC(=O)[C@@H]2C[C@@H](O)CN2C(=O)[C@H](Cc2c[nH]c3ccc(Cl)cc23)NC(=O)[C@H](Cc2cc(Cl)cc(Cl)c2)NC(=O)[C@H](CC(=O)O)NC(C)=O)CSCc2cccc(n2)CSC[C@@H](C(N)=O)NC1=O [GIP-263, Ac-Asp-Egn-5Clw-Hyp-Glu-leu-[Cys(2Lut)-Thp-Leu-Ile-Cys]-NH2] (Ac-D[Phe(3,5-Cl2)][Trp(5-Cl)][Hyp]E[dL]C[Thp]LIC-NH2; linker 7-11 via Pyridine(2,6-diCH2))
CC[C@H](C)[C@@H]1NC(=O)[C@H](CC(C)C)NC(=O)C2(CCOCC2)NC(=O)[C@@H](NC(=O)[C@@H](CC(C)C)NC(=O)[C@H](CCC(=O)O)NC(=O)[C@@H]2C[C@@H](O)CN2C(=O)[C@H](Cc2cc(Cl)cc(Cl)c2)NC(=O)[C@H](Cc2c[nH]c3ccccc23)NC(=O)[C@H](CC(=O)O)NC(C)=O)CSCc2cccc(n2)CSC[C@@H](C(N)=O)NC1=O [GIP-264, Ac-Asp-Trp-Egn-Hyp-Glu-leu-[Cys(2Lut)-Thp-Leu-Ile-Cys]-NH2] (Ac-DW[Phe(3,5-Cl2)][Hyp]E[dL]C[Thp]LIC-NH2; linker 7-11 via Pyridine(2,6-diCH2))
CC[C@H](C)[C@@H]1NC(=O)[C@H](CC(C)C)NC(=O)C2(CCOCC2)NC(=O)[C@@H](NC(=O)[C@@H](CC(C)C)NC(=O)[C@H](CCC(=O)O)NC(=O)[C@@H]2C[C@@H](O)CN2C(=O)[C@H](Cc2cccc(Cl)c2Cl)NC(=O)[C@H](Cc2c[nH]c3ccccc23)NC(=O)[C@H](CC(=O)O)NC(C)=O)CSCc2cccc(n2)CSC[C@@H](C(N)=O)NC1=O [GIP-265, Ac-Asp-Trp-Egp-Hyp-Glu-leu-[Cys(2Lut)-Thp-Leu-Ile-Cys]-NH2] (Ac-DW[X22][Hyp]E[dL]C[Thp]LIC-NH2; linker 7-11 via Pyridine(2,6-diCH2))
